Source: patent publication US20100098657A1, “Method of Treating Cancer with Immunomodulatory Compounds and IgG” (priority 2007, published 2010)

Key:
[1] = system: NK cells; experiment: NK cell chemokine/cytokine production in response to Trastuzumab-coated SK-BR3 cells; type: cell-based, human
Method: As shown herein, immunomodulatory compounds, either alone or in combination with other agents, can alter the expression of several growth factors.
The effects of immunomodulatory compounds lenalidomide and pomalidomide on NK cell chemokine/cytokine production in response to Trastuzumab-coated SK-BR3 cells were assessed using procedures substantially similar to those described in Section 6.6., above.

[2] = system: Cetuximab-coated HCT-116 cells; experiment: NK cell cytotoxicity against Cetuximab-coated HCT-116 cells; type: cell-based, human; settings: presence of IL-2
[3] = system: Rituximab-coated Raji cells; experiment: ADCC assay: NK cell specific lysis of Rituximab-coated Raji cells; type: cell-based, human
Method: (§1) Preparation of NK cells: Purified NK cells (5×10^4) were seeded in 96-well U-bottom plates in 100 μL of 10% RPMI-1640 medium, supplemented with human AB+ serum. […] The cells were then incubated at 37° C. overnight.
(§2) Preparation of Rituximab-coated target cancer cells: Various NHL cell lines (Namalwa, Raji, Farage, and Jeko-1) were treated with 20 μg/mL Rituximab (Rituximab, Genentech, Inc.) for 30 minutes at 37° C. Excess unbound Rituximab was then removed by a washing step.
Addition of Rituximab-coated target cells to NK cells: The Rituximab-coated target cells (5×103/100 μL/well) were added to the pretreated effector NK cells at a ratio of 10:1. The cells were then co-incubated for 4 hours at 37° C.
(§3) Cytotoxicity analysis: NK cell cytotoxicity against the tumor cell lines was analyzed using a standard lactate dehydrogenase release assay (CytoTox 96 Non-radioactive Cytotoxicity Assay, Promega) to measure ADCC in a 50 μL aliquot of supernatant. The experimental release was corrected by subtraction of the spontaneous release of effector cells at the corresponding dilution. Spontaneous release from target cells alone was <15% of the maximum release as determined with target cells lysed in 1% Triton X-100.
(§4) Determination of effector: target ratio: Specific lysis for each effector-to-target (E:T) cell ratio was calculated using the following formula: % specific lysis=([experimental release−spontaneous release]/[maximum release−spontaneous release])×100.
Enhancement of NK cell cytotoxicity by immunomodulatory compounds lenalidomide and pomalidomide was assessed following procedures substantially similar to those described in Section 6.3, above.

[4] = system: Rituximab-coated CD20+ Raji cells; experiment: Monocyte-mediated lysis (ADCC) of Rituximab-coated Raji cells; type: cell-based, human
Method: NK cells and monocytes were isolated from fresh, buffy-coated, whole blood by 30-minute incubation with RossetteSep cocktail (StemCell Technologies, Inc.) followed by Ficoll-Hypaque density gradient centrifugation. CD56+ NK cells were isolated to ˜85% purity and CD14+ monocytes were isolated to ˜80% purity as determined by flow cytometry.
as §2, §3, §4
To evaluate monocyte ADCC, similar methods were used to prepare the monocytes.

[5] = system: pERK; experiment: Immunoblot analysis of pERK; type: cell-based; settings: IL-12 plus IgG
Method: (§5) FIG. 7 is a panel of bar graphs showing the quantitation of an immunoblot comparison of cells treated with either IL-12 alone, IgG alone, IL-12 plus IgG, or IL-12 plus IgG plus lenalidomide (at 0.1 μM to 10 μM).
(§6) Additionally, administration of the immunomodulatory compound lenalidomide was capable of increasing both pPLC-γ2 and pERK levels (FIGS. 7B and 7C). Increase in the levels of these proteins were also observed in connection with pomalidomide (FIGS. 13A and 13B). PLC-γ2 is involved in the maturation and activation of NK cells and triggers the release of lytic granules (Regunathan et al., 2006, Jour. Immunol 175:749-754, which is incorporated by reference herein in its entirety). PLC-γ2 also induces IFN-γ production and is necessary for cytotoxicity and chemokine production.

[6] = system: Src homology-2 containing inositol 5′-phosphatase 1 (phospho-SHIP-1); experiment: Immunoblot analysis of phospho-SHIP-1; type: cell-based; settings: IL-12 plus IgG; lenalidomide 10 μM
Method: as §5
SHIP-1 is a negative regulator of cell proliferation, survival, and activation and also a negative regulator of Fc-γ and cytokine receptor-mediated signaling (Parihar et al., 2005, Cancer Res. 65:9099-9107). The inhibition of phospho-SHIP-1 increases IFN-γ release following NK cell stimulation with IgG and IL-12 (Parihar et al., 2005, Cancer Res. 65:9099-9107, which is incorporated by reference herein in its entirety) and thus may contribute to the mechanism of action of lenalidomide.

[7] = system: pPLC-γ2; experiment: Immunoblot analysis of pPLC-γ2; type: cell-based; settings: IL-12 plus IgG
Method: as §5, §6

[8] = system: Trastuzumab-coated SK-BR-3 cells; experiment: NK cell cytotoxicity against Trastuzumab-coated SK-BR-3 cells; type: cell-based, human
[9] = system: Fas-L; experiment: Fas-L expression on CD56+ NK cells (flow cytometry); type: cell-based, human; settings: FIG. 12
Method: Cytometry was undertaken on 50 μL samples containing 1×10^6 cells/mL in washing buffer, 2% FBS with 0.1% NaN3 in PBS. Fluorochrome-conjugated antibodies, unconjugated antibodies, and isotype control mAb were obtained from PharMingen (San Diego, Calif.). The cells were stained with anti-CD56-PE, anti-FasL-FITC or isotype control mAb (1 μg/10^6 cells), and analyzed by flow cytometry according to the manufacturer's instructions.

[10] = system: Rituximab-coated CD20+ Jeko-1 (mantle cell lymphoma) cells; experiment: ADCC assay: NK cell-mediated killing of Rituximab-coated CD20+ Jeko-1 cells; type: cell-based, human
Method: as §1, §2
[…] The cells were then co-incubated for 4 hours at 37° C.
as §3, §4

[11] = presence of immobilized IgG and IL-2

Compound: Nc1cccc2c1C(=O)N(C1CCC(=O)NC1=O)C2=O (stereo not drawn) [pomalidomide, 1,3-dioxo-2-(2,6-dioxopiperidin-3-yl)-4-aminoisoindoline]
- production of any chemokines/cytokines ([1]; compound alone): did not induce
- production of GM-CSF [1, 11]: dose-dependently enhanced
- production of IL-8 [1, 11]: dose-dependently enhanced
- production of IP-10 [1, 11]: dose-dependently enhanced
- production of MCP-1 [1, 11]: dose-dependently enhanced
- production of MIP-1α [1, 11]: dose-dependently enhanced
- production of MIP-1β [1, 11]: not
- production of RANTES [1, 11]: dose-dependently enhanced
- NK cell cytotoxicity [2]: significantly increases
- NK cell cytotoxicity ([3]; presence of IL-2 (FIG. 8B/9B)): significantly increases
- NK cell cytotoxicity ([3]; presence of IL-12 (FIG. 8E/9E)): significantly increases
- monocyte-mediated lysis ([4]; data not shown): enhance
- pERK levels [5]: Increase
- levels of phospho-SHIP-1 [6]: decreased
- pPLC-γ2 levels [7]: Increase
- NK cell cytotoxicity ([8]; presence of IL-2): significantly increases
- NK cell cytotoxicity ([8]; presence of IL-12): significantly increases
- NK cell Fas-L expression, results compared with lenalidomide [9]: similar

Compound: Rituximab: anti-CD20 antibody Rituximab (Rituxan®)
- maximum killing activity ([4]; Rituximab-coated cells, no immunomodulatory compound, E:T 50:1): ~30%
- NK cell-mediated killing ([10]; Rituximab-coated cells without lenalidomide, E:T 50:1): 70%
- increase in tumor cell killing above background ([10]; single agent, background killing=40%): approximately 30%
